Earlier results, collected in patent EP1526849B1 (A. MENARINI INDUSTRIE FARMACEUTICHE RIUNITE S.R.L., priority 2002, dated 2004).

Details: gel with benzofenone-3 1%; 8 hours solar light; JP60155111 example 1

CC(C(=O)O)c1cccc(C(=O)c2ccccc2)c1 (stereo not shown) [ketoprofen]
percentage of ketoprofen not broken down: 90%
